# According to patent US20100152291A1, “PRODUCTION METHOD OF CAPSINOID BY DEHYDRATING CONDENSATION, STABILIZING METHOD OF CAPSINOID, AND CAPSINOID COMPOSITION” (AJINOMOTO CO., INC., priority 2005, published 2010):
# Assays:
# [1] = Stability of capsinoid containing fatty acid, preserved in hexane at 5° C., purity by HPLC; format: physicochemical
# Experimental: For example, dihydrocapsiate was synthesized using a small excess of fatty acid, and dihydrocapsiate obtained by preparatively separating together with the excess fatty acid remaining in about 2 wt % relative to dihydrocapsiate was analyzed by HPLC.
# (§1) The HPLC measurement conditions of capsinoid are as follows. HPLC conditions: column: Inertsil C8 3 u μm (diameter 4.0 mm×100 mm) eluent: A mixed solvent of eluents A, B shown below and a buffer was eluted by gradient elution method. […]
# (§2) eluent A: CH3CN:buffer=80:20 eluent B: CH3CN:buffer=0:100 […]
# (§3) temperature: room temperature
# Capsiate obtained in the same manner as in Example 5, which contained 3.2 wt % of fatty acid, was analyzed by HPLC to find the purity of 97.8 area %. This capsiate was preserved in a hexane solvent at 5° C. for 30 days and analyzed by HPLC.
# Dihydrocapsiate obtained in the same manner as in Example 15, which contained 2.0 wt % of fatty acid, was analyzed by HPLC to find 99.2 area %. This dihydrocapsiate was preserved in a hexane solvent at 5° C. for 30 days and analyzed by HPLC.
# [2] = Stability of vanillyl decanoate in acetonitrile with or without decanoic acid, purity by HPLC; format: physicochemical
# Source text: When ester compound (3) is separated and purified by column chromatography, fatty acid (1) present in excess in the reaction mixture has an Rf value similar to that of ester compound (3); therefore, the separation and purification of ester compound (3) is associated with difficulty. […] For example, when vanillyl decanoate was synthesized from decanoic acid and vanillyl alcohol, separated and purified from decanoic acid by silica gel column chromatography to give pure vanillyl decanoate, which was dissolved in acetonitrile and analyzed by HPLC. As a result, the purity of vanillyl decanoate was 95.6 area %. However, when the sample was reanalyzed 62 hours later, the purity decreased to 82.0 area %. […] Vanillyl decanoate is considered to have become unstable upon separation from decanoic acid. Therefore, fatty acid (1), difficult to be separated from ester compound (3), is preferably left coexisted rather than being separated, from the aspect of stability of ester compound (3).
# For example, when 9.1 wt % of decanoic acid was added, in acetonitrile, to pure vanillyl decanoate separated from decanoic acid, the purity of vanillyl decanoate was 97.6 area % even after 19.5 hours and the purity was maintained.
# as §1, §2, §3
# Vanillyl decanoate was separately synthesized from vanillyl alcohol and decanoic acid, and its stability was examined. Decanoic acid was separated by silica gel column chromatography, and the purified product was dissolved in acetonitrile and analyzed by […]
# HPLC to find 95.6 area %. When the sample was reanalyzed 62 hours later, the purity decreased to 82.0 area %, and vanillyl decanoate was confirmed to have been decomposed.
# Decanoic acid was separated by silica gel column chromatography, and the purified product, vanillyl decanoate, was dissolved in acetonitrile and analyzed by HPLC 9 hours later to find 90.4 area %. To the acetonitrile solution of the purified product, vanillyl decanoate, was added 9.1 wt % of decanoic acid, and the mixture was analyzed by HPLC 19.5 hours later to find 97.6 area %, showing increase in the purity as compared to the absence of decanoic acid addition. Similarly, 16.7 wt %, 28.7 wt % and 44.8 wt % of decanoic acid was added to vanillyl decanoate to result in higher purities of 98.1 area %, 98.1 area % and 97.9 area % as compared to the absence of decanoic acid addition.
structure (smiles),measurement,setting,value
COc1cc(COC(=O)CCCC/C=C/C(C)C)ccc1O [capsiate],purity by HPLC,"[1]; containing 3.2 wt % of fatty acid, before preservation",97.8 area %
same,purity by HPLC,"[1]; containing 3.2 wt % of fatty acid, preserved in hexane at 5° C. for 30 days",97.6 area %
COc1cc(COC(=O)CCCCCCC(C)C)ccc1O [dihydrocapsiate],purity by HPLC,"[1]; containing 2.0 wt % of fatty acid, preserved in hexane at 5° C. for 30 days",99.3 area %
same,time stably preserved without decomposition,"[1]; with about 2 wt % excess fatty acid, in hexane at 5° C.",at least 30 days
CCCCCCCCCC(=O)OCc1ccc(O)c(OC)c1 [vanillyl decanoate],purity by HPLC,"[2]; acetonitrile solution, 9.1 wt % of decanoic acid added, 19.5 hours later",97.6 area %
same,purity by HPLC,"[2]; acetonitrile solution, 16.7 wt % of decanoic acid added",98.1 area %
same,purity by HPLC,"[2]; acetonitrile solution, 28.7 wt % of decanoic acid added",98.1 area %
same,purity by HPLC,"[2]; acetonitrile solution, 44.8 wt % of decanoic acid added",97.9 area %
same,purity by HPLC,"[2]; pure product separated from decanoic acid, dissolved in acetonitrile, first analysis",95.6 area %
same,purity by HPLC,"[2]; pure product separated from decanoic acid, in acetonitrile, reanalyzed 62 hours later",82.0 area %
same,purity by HPLC,"[2]; purified product without decanoic acid, in acetonitrile, 9 hours later",90.4 area %
